The source of these data is patent publication US20070149570A1, “Piperidine derivative and use thereof” (priority 2005, published 2007).

The target of the first assay is T1, substance P receptors (Homo sapiens, UniProt P25103).
T1 construct: The receptor was prepared from human lymphoblast cells (IM-9); endogenous in cells; host or cells: IM-9 human lymphoblast cells (membrane preparation)
T1 sequence (P25103 whole entry): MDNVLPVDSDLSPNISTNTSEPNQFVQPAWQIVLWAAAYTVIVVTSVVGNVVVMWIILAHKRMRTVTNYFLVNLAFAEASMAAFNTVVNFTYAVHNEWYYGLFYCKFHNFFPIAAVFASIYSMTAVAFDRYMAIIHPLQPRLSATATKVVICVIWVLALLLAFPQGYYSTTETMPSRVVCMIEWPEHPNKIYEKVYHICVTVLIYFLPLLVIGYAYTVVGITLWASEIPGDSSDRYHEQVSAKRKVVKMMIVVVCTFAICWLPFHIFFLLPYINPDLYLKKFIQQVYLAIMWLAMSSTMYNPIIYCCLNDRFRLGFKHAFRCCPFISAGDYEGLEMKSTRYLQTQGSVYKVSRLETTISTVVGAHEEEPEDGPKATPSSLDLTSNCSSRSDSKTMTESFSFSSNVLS
Nature of the assay: Radioligand receptor binding inhibitory activity using receptor from human lymphoblast cells (IM-9), 125I-BHSP. The conditions noted are these: IC50 (concentration necessary to cause 50% inhibition), radioligand 125I-BHSP, 25° C., 30 minutes. The method, then: Radioligand receptor binding inhibitory activity (Binding inhibitory activity using receptor from human lymphoblast cells (IM-9))
The method of M. A. Cascieri et al., [Molecular Pharmacology, vol. 42, p. […] The receptor was prepared from human lymphoblast cells (IM-9). IM-9 cells (2×10^5 cells/mL) were incubated for 3 days (one liter), which was then subjected to centrifugation for 5 minutes at 500×G to obtain cell pellets. […] The residue was washed twice with 30 mL of the above-mentioned buffer, which was then preserved frozen (−80° C.) as a specimen of the receptor.
The specimen was suspended in a reaction buffer (50 mM Tri-HCl buffer (pH 7.4), 0.02% bovine serum albumin, 1 mM phenylmethylsulfonyl fluoride, 2 μg/mL chymostatin, 40 μg/mL bacitracin and 3 mM manganese chloride) to have protein in the concentration of 0.5 mg/mL of protein and 100 μL portion of the suspension was used in the reaction. […] The amount of nonspecific binding was determined by adding substance P at a final concentration of 2×10^−6 M.
After the reaction, using a cell harvester (290 PHD, Cambridge Technology, Inc., U.S.A.), filtration was carried out through a glass filter (GF/B, Whatman, U.S.A.), which was immersed in 0.1% polyethyleneimine for 24 hours and dried. After washing three times with 250 μL of 50 mM Tris-HCl buffer (pH 7.4) containing 0.02% bovine serum albumin, the radioactivity remaining on the filter was determined with a gamma counter.
`COc1ccc(-c2ccc(C#N)cc2)cc1CN[C@H]1CCN(C(=O)C2CCN(C(C)=O)CC2)C[C@H]1c1ccccc1` [Example 35, 3′-[({(3R,4S)-1-[(1-acetylpiperidin-4-yl)carbonyl]-3-phenylpiperidin-4-yl}amino)methyl]-4′-methoxybiphenyl-4-carbonitrile] displayed an IC50 of 0.017 nM.

Staying with this assay, now noted: radioligand 125I-BHSP, 25° C., 30 minutes, read-out: IC50 (concentration necessary to cause 50% inhibition).
Consider `COc1ccc(-c2ccc(C#N)cc2)cc1CN[C@H]1CCN(C(=O)CNC(C)=O)C[C@H]1c1ccccc1` [Example 10, N-[2-((3R,4S)-4-{[(4′-cyano-4-methoxybiphenyl-3-yl)methyl]amino}-3-phenylpiperidin-1-yl)-2-oxoethyl]acetamide], for which the IC50 was found to be 0.019 nM.

On to `COc1ccc(-c2ccc(C#N)cc2F)cc1CN[C@H]1CCN(C(=O)CNC(C)=O)C[C@H]1c1ccccc1` [Example 11, N-[2-((3R,4S)-4-{[(4′-cyano-2′-fluoro-4-methoxybiphenyl-3-yl)methyl]amino}-3-phenylpiperidin-1-yl)-2-oxoethyl]acetamide], for which the IC50 is 0.016 nM.

With `COc1ccc(-c2ccc(Cl)cc2)cc1CN[C@H]1CCN(C(=O)CNC(C)=O)C[C@H]1c1ccccc1` [Example 15, N-[2-((3R,4S)-4-{[(4′-chloro-4-methoxybiphenyl-3-yl)methyl]amino}-3-phenylpiperidin-1-yl)-2-oxoethyl]acetamide], the IC50 was determined as 0.02 nM.

Turning to `COc1ccc(-c2ccc(F)cc2)cc1CN[C@H]1CCN(C(=O)CNC(C)=O)C[C@H]1c1ccccc1` [Example 16, N-[2-((3R,4S)-4-{[(4′-fluoro-4-methoxybiphenyl-3-yl)methyl]amino}-3-phenylpiperidin-1-yl)-2-oxoethyl]acetamide], the IC50 amounted to 0.031 nM.

Regarding `COc1ccc(-c2ccc(C)cc2)cc1CN[C@H]1CCN(C(=O)CNC(C)=O)C[C@H]1c1ccccc1` [Example 17, N-[2-((3R,4S)-4-{[(4-methoxy-4′-methylbiphenyl-3-yl)methyl]amino}-3-phenylpiperidin-1-yl)-2-oxoethyl]acetamide], the IC50 was found to be 0.022 nM.

With `COc1ccc(-c2ccc(C(F)(F)F)cc2)cc1CN[C@H]1CCN(C(=O)CNC(C)=O)C[C@H]1c1ccccc1` [Example 18, N-{2-[(3R,4S)-4-({[4-methoxy-4′-(trifluoromethyl)biphenyl-3-yl]methyl}amino)-3-phenylpiperidin-1-yl]-2-oxoethyl}acetamide], the IC50 was 0.036 nM.

Consider `COc1ccc(-c2ccc(C#N)c(F)c2)cc1CN[C@H]1CCN(C(=O)CNC(C)=O)C[C@H]1c1ccccc1` [Example 21, N-[2-((3R,4S)-4-{[(4′-cyano-3′-fluoro-4-methoxybiphenyl-3-yl)methyl]amino}-3-phenylpiperidin-1-yl)-2-oxoethyl]acetamide], for which the IC50 worked out at 0.019 nM.

For `COc1ccc(-c2ccc(Br)cc2)cc1CN[C@H]1CCN(C(=O)CNC(C)=O)C[C@H]1c1ccccc1` [Example 22, N-[2-((3R,4S)-4-{[(4′-bromo-4-methoxybiphenyl-3-yl)methyl]amino}-3-phenylpiperidin-1-yl)-2-oxoethyl]acetamide], the IC50 was 0.018 nM.

Regarding `C#Cc1ccc(-c2ccc(OC)c(CN[C@H]3CCN(C(=O)CNC(C)=O)C[C@H]3c3ccccc3)c2)cc1` [Example 23, N-[2-((3R,4S)-4-{[(4′-ethynyl-4-methoxybiphenyl-3-yl)methyl]amino}-3-phenylpiperidin-1-yl)-2-oxoethyl]acetamide], the IC50 stood at 0.015 nM.

As for `COc1ccc(-c2ccc(C#N)cc2C)cc1CN[C@H]1CCN(C(=O)CNC(C)=O)C[C@H]1c1ccccc1` [Example 25, N-[2-((3R,4S)-4-{[(4′-cyano-4-methoxy-2′-methylbiphenyl-3-yl)methyl]amino}-3-phenylpiperidin-1-yl)-2-oxoethyl]acetamide], the IC50 was determined as 0.018 nM.

Consider `COCC(=O)N1CC[C@H](NCc2cc(-c3ccc(C#N)cc3)ccc2OC)[C@H](c2ccccc2)C1` [Example 32, 4′-methoxy-3′-({[(3R,4S)-1-(methoxyacetyl)-3-phenylpiperidin-4-yl]amino}methyl)biphenyl-4-carbonitrile], for which the IC50 worked out at 0.015 nM.

For the compound `COCC(=O)N1CC[C@H](NCc2cc(-c3ccc(C#N)cc3F)ccc2OC)[C@H](c2ccccc2)C1` [Example 33, 2-fluoro-4′-methoxy-3′-({[(3R,4S)-1-(methoxyacetyl)-3-phenylpiperidin-4-yl]amino}methyl)biphenyl-4-carbonitrile], the IC50 is 0.015 nM.

For the compound `COc1ccc(-c2ccc(C#N)cc2F)cc1CN[C@H]1CCN(C(=O)C2CCN(C(C)=O)CC2)C[C@H]1c1ccccc1` [Example 36, 3′-[({(3R,4S)-1-[(1-acetylpiperidin-4-yl)carbonyl]-3-phenylpiperidin-4-yl}amino)methyl]-2-fluoro-4′-methoxybiphenyl-4-carbonitrile], the IC50 was determined as 0.017 nM.

As to `COc1ccc(-c2ccc(C#N)cc2)cc1CN[C@H]1CCN(C(=O)[C@@H](CC(N)=O)NC(C)=O)C[C@H]1c1ccccc1` [Example 41, (3R)-3-(acetylamino)-4-((3R,4S)-4-{[(4′-cyano-4-methoxybiphenyl-3-yl)methyl]amino}-3-phenylpiperidin-1-yl)-4-oxobutanamide], the IC50 amounted to 0.019 nM.

In the case of `COc1ccc(-c2ccc(C#N)cc2)cc1CN[C@H]1CCN(C(=O)C2CC(=O)NC(=O)C2)C[C@H]1c1ccccc1` [Example 42, 3′-[({(3R,4S)-1-[(2,6-dioxopiperidin-4-yl)carbonyl]-3-phenylpiperidin-4-yl}amino)methyl]-4′-methoxybiphenyl-4-carbonitrile], the IC50 was 0.014 nM.

For `COc1ccc(-c2ccc(C#N)cc2)cc1CN[C@H]1CCN(C(=O)Cn2cnnn2)C[C@H]1c1ccccc1` [Example 43, 4′-methoxy-3′-({[(3R,4S)-3-phenyl-1-(1H-tetrazol-1-ylacetyl)piperidin-4-yl]amino}methyl)biphenyl-4-carbonitrile], the IC50 was 0.015 nM.

Regarding `COc1ccc(-c2ccc(C#N)cc2)cc1CN[C@H]1CCN(C(=O)Cc2n[nH]c(=O)[nH]2)C[C@H]1c1ccccc1` [Example 44, 4′-methoxy-3′-[({(3R,4S)-1-[(5-oxo-4,5-dihydro-1H-1,2,4-triazol-3-yl)acetyl]-3-phenylpiperidin-4-yl}amino)methyl]biphenyl-4-carbonitrile], the IC50 was found to be 0.015 nM.

With `CC(=O)NCC(=O)N1CC[C@H](NCc2cc(-c3ccc(Cl)cc3)ccc2OC(F)(F)F)[C@H](c2ccccc2)C1` [Example 72, N-{2-[(3R,4S)-4-({[4′-chloro-4-(trifluoromethoxy)biphenyl-3-yl]methyl}amino)-3-phenylpiperidin-1-yl]-2-oxoethyl}acetamide], the IC50 amounted to 0.023 nM.

Turning to `CC1(C)OC(=O)N(CC(=O)N2CC[C@H](NCc3cc(-c4ccc(C#N)cc4F)ccc3OC(F)(F)F)[C@H](c3ccccc3)C2)C1=O` [Example 96, 3′-[({(3R,4S)-1-[(5,5-dimethyl-2,4-dioxo-1,3-oxazolidin-3-yl)acetyl]-3-phenylpiperidin-4-yl}amino)methyl]-2-fluoro-4′-(trifluoromethoxy)biphenyl-4-carbonitrile], the IC50 worked out at 0.021 nM.

For `CC1(C)OC(=O)N(CC(=O)N2CC[C@H](NCc3cc(-c4ccc(C#N)cc4F)ccc3OC(F)(F)F)[C@H](c3ccccc3)C2)C1=O` [Example 97, 3′-[({(3R,4S)-1-[(5,5-dimethyl-2,4-dioxo-1,3-oxazolidin-3-yl)acetyl]-3-phenylpiperidin-4-yl}amino)methyl]-2-fluoro-4′-(trifluoromethoxy)biphenyl-4-carbonitrile], the IC50 was found to be 0.023 nM.
